Like-named read-outs stand apart in the source and are kept apart here.
Legend:
erythrocytic membrane = assay: Enhancement of resistance of erythrocytic membrane (hypoosmotic hemolysis); format: cell-based, rat (Sprague-Dawley strain); conditions: for inhibition at 770 µM / hemolysis at 770 µM: Rattus norvegicus, Erythrocyte, 0.5 h; for inhibition at 770 µM: read-out: Percent Inhibition Ratio (hemolysis); for hemolysis at 770 µM: average of five ± S.E., p < 0.05
Protocol: Enhancement of resistance of erythrocytic membrane
Sprague-Dawley strain rats were treated with heparine and blood samples were obtained therefrom. The blood was centrifuged at 3000 rpm for ten minutes to remove blood plasma and then washed with 10 mM phosphate buffer-physiological saline solution (pH 7) to wash erythrocyte. To each volume of blood required to obtain the erythrocyte, 19 volumes of hypoosmotic solution (containing 10 mM phosphate buffer) was added and an erythrocyte suspension (5% erythrocyte suspension) was prepared. With reference to hemolysis, the absorbancy (O.D.) at 540 nm using distilled water as the hypoosmotic solution so that completely hemolyzed was defined as "100% hemolysis".
An erythrocyte suspension with 0.4%/0.45% hypoosmotic saline solution was incubated at 37° C. for 30 minutes, centrifuged at 3000 rpm for 10 minutes, and the percent hemolysis was calculated from the O.D. of the supernatant liquid.

[1] = test system: guinea pigs having colitis caused by amylopectine sulfate; assay: Effect on colitis induced by administration of amylopectine sulfate (APS); format: in vivo, guinea pig (Hartley strain); conditions: 2 weeks; for Symptom: Colitis Incidence: saline group 100%; for Symptom: Area of Ulcer: saline group 120 ± 24
Protocol: Effect on colitis induced by administration of amylopectine sulfate (according to the method reported in J. Gastroenterology, 67, 473-483, 1974 by Marcus, R and Watt)
Sixty male guinea pigs of Hartley strain (body weight: 200 grams) were used. Among them, fifty guinea pigs were given tap water containing 1% amylopectine sulfate ("APS") as drinking water and were bred for four weeks. (APS contains about 15% sulfur.)
The animals in these five groups were administered 1 ml/kg/day of physiological saline solution and 5, 10, 25 and 50 mg/kg/day of compound I for two weeks by oral route. The other ten guinea pigs were untreated controls and were given untreated tap water as drinking water and were bred for four weeks under the same circumstances as those of the experimental groups.
After two weeks, the animals were killed by overinhalation of ether, the large intestines were removed and the degree of colitis was determined by observing the incidence of ulcers and the area of ulcers with a stereoscopic microscope (×10). The results are given in Table 1, and the changes in body weight during the administration of the compound I is given in the drawing.

ddY strain mice = assay: Acute toxicity test in mice; format: in vivo; conditions: mice and rats
Text: (§1) The LD50 values of compound I in ddY strain mice (6 weeks of age) and in Sprague-Dawley strain rats (7 weeks of age) are given in Table 4.

[2] = Acute toxicity test in mice; format: in vivo; conditions: mouse, in vivo, read-out: LD50 (95% fiducial limits)
Text: as §1

solubility in water = format: physicochemical
intestinal bacteria = assay: action on intestinal bacteria, standard test by Japan Antibiotic Association
Text: As a mechanism for the resulting colitis by administration of APS, the physico-chemical properties of APS must be involved. […] Therefore, there is no contribution of antibacterial activity in the effect of compound I against colitis. In view of the above, it is clear that the effect of the compound I against colitis is due to the direct protection of large intestinal mucosal cells by compound I.

[3] = Acute toxicity test in rats; conditions: rat, in vivo, read-out: LD50 (95% fiducial limits)
Text: as §1

[4] = test system: hepatic and renal disorders induced by carbon tetrachloride in rats; assay: Effect on hepatic and renal disorders induced by administration of carbon tetrachloride; format: in vivo, rat (Sprague-Dawley strain); conditions: after CCl4; for Body Weight: average ± S.E., n=10; for Liver Wt.: saline 10.5 ± 1.9; for BUN: saline 56.6 ± 10.6; for GPT: saline 2206 ± 298; for LDH: saline 22425 ± 9211
Protocol: Effect on hepatic and renal disorders induced by administration of carbon tetrachloride
Five groups of male rats of Sprague-Dawley strain (body weight: 200 grams) were used (ten rats per group). All of these rats were given 4 ml/kg of 50% carbon tetrachloride (used with olive oil) by oral route. After 24 hours, the rats were killed by decapitation, and blood was taken and the liver was isolated therefrom. Previously, the rats were fasted for 18 hours before taking blood therefrom. The blood was subjected to quantitative determination of GOT, GPT, LDH and BUN and the weights of isolated livers were measured.
Compound I was given to the rats of four groups, two to six hours after the administration of carbon tetrachloride (in other words, at the time when hepatic and renal disorders caused by carbon tetrachloride had already appeared) at the dose of 5, 10, 25 or 50 mg/kg by oral route. Physiological saline in an amount of 1 ml/kg/day to the rats of the fifth group. Rats of a sixth group that received no carbon tetrachloride, served as a control, and were also autospied, as above.

In the case of Nc1nc(N)nc(-c2cc(Cl)ccc2Cl)n1.O=C(O)/C=C\C(=O)O [Compound I, 2,4-diamino-6-(2', 5'-dichlorophenyl)-s-triazine maleate], the “inhibition of hemolysis (in words)” value (erythrocytic membrane; 0.77 mM, 0.4 and 0.45% saline) is reported as “shows inhibition of hemolysis”, the “protective action to erythrocyte membranes (in words)” value (erythrocytic membrane; 0.77 mM, 0.4 and 0.45% saline) is reported as “exhibits protective action to erythrocyte membranes” and the inhibition at 770 µM (erythrocytic membrane; 0.77 mM, 0.4% saline solution) is reported as 35.5%. For the same compound, the inhibition at 770 µM (erythrocytic membrane; 0.77 mM, 0.45% saline solution) was 62.2%, the hemolysis at 770 µM (erythrocytic membrane; read-out: Percent Hemolysis Ratio, 0.77 mM, 0.4% saline solution, control 70.8 ± 0.6) was 45.7 ± 1.8% and the hemolysis at 770 µM (erythrocytic membrane; read-out: Percent Hemolysis Ratio, 0.77 mM, 0.45% saline solution, control 27.5 ± 2.1) was 10.4 ± 1.1%. For the same compound, the “Average Intake of APS, after administration of Compound I” value (“Average Intake of APS” for short) ([1]; 5 mg/kg/day oral) was 0.91 g/kg/2w, the “Increase in Body Weight (2-4 wks)” value ([1]; 5 mg/kg/day oral, saline group 2 ± 10, control 110 ± 11) was 11 ± 12 g and the “Symptom: Colitis Incidence” value ([1]; 5 mg/kg/day oral) was 90%. The “Symptom: Area of Ulcer” value ([1]; 5 mg/kg/day oral) was 65 ± 20 mm^2, the “Average Intake of APS” value ([1]; 10 mg/kg/day oral) was 1.12 g/kg/2w and the “Increase in Body Weight (2-4 wks)” value ([1]; 10 mg/kg/day oral, saline group 2 ± 10, control 110 ± 11) was 26 ± 15 g. For the same compound, the “Symptom: Colitis Incidence” value ([1]; 10 mg/kg/day oral) was 80%, the “Symptom: Area of Ulcer” value ([1]; 10 mg/kg/day oral) was 50 ± 24 mm^2 and the “Average Intake of APS” value ([1]; 25 mg/kg/day oral) was 1.26 g/kg/2w. For the same compound, the “Increase in Body Weight (2-4 wks)” value ([1]; 25 mg/kg/day oral, saline group 2 ± 10, p < 0.05) was 36 ± 13 g, the “Symptom: Colitis Incidence” value ([1]; 25 mg/kg/day oral) was 60% and the “Symptom: Area of Ulcer” value ([1]; 25 mg/kg/day oral, p < 0.05) was 43 ± 15 mm^2. For the same compound, the “Average Intake of APS” value ([1]; 50 mg/kg/day oral) was 1.24 g/kg/2w, the “Increase in Body Weight (2-4 wks)” value ([1]; 50 mg/kg/day oral, saline group 2 ± 10, p < 0.05) was 54 ± 10 g and the “Symptom: Colitis Incidence” value ([1]; 50 mg/kg/day oral) was 60%. For the same compound, the “Symptom: Area of Ulcer” value ([1]; 50 mg/kg/day oral, p < 0.05) was 34 ± 12 mm^2, the “effect on body weight of afflicted animals (in words, drawing)” value ([1]; oral) was “greatly increases the body weight of the afflicted animals” and the “effect on colitis (in words)” value ([1]; oral) was “improvement in the colitis followed by increase in body weight was observed”. For the same compound, the “intake of APS (in words)” value ([1]; oral) was “the intake of APS did not decrease, but rather increased”, the “safety (LD50 compared with effective dose, in words)” value (ddY strain mice) was “highly safe” and the LD50 ([2]; ip, mice female, intraperitoneal) was 1010 mg/kg. The LD50 ([2]; ip, mice male, intraperitoneal) was 775 mg/kg, the LD50 ([2]; po, mice female, oral) was 5700 mg/kg and the LD50 ([2]; po, mice male, oral) was 6040 mg/kg. For the same compound, the LD50 ([2]; sc, mice female, subcutaneous) was 3220 mg/kg, the LD50 ([2]; sc, mice male, subcutaneous) was 2840 mg/kg and the solubility at 0.5 h (solubility in water; saturated solution in water) was 770 µM. For the same compound, the “solubility in water (in words)” value (solubility in water; water) was “hardly soluble in water”, the “action on intestinal bacteria” value (intestinal bacteria) was “does not exhibit any action on intestinal bacteria” and the LD50 ([3]; ip, rats female, intraperitoneal) was 789 mg/kg. For the same compound, the LD50 ([3]; ip, rats male, intraperitoneal) was 802 mg/kg, the LD50 ([3]; po, rats female, oral) was 2920 mg/kg and the LD50 ([3]; po, rats male, oral) was 2900 mg/kg. For the same compound, the LD50 ([3]; sc, rats female, subcutaneous) was 1520 mg/kg, the LD50 ([3]; sc, rats male, subcutaneous) was 1600 mg/kg and the “Body Weight” value ([4]; 5 mg/kg oral) was 198.6 ± 0.5 g. For the same compound, the “Liver Wt.” value ([4]; 5 mg/kg oral) was 9.6 ± 2.2 g, the BUN ([4]; 5 mg/kg oral) was 42.0 ± 9.8 mg/dL and the GPT ([4]; 5 mg/kg oral) was 1920 ± 306 Karmen Unit. The LDH ([4]; 5 mg/kg oral) was 16341 ± 9009 Wroblewski Unit, the GOT ([4]; 5 mg/kg oral, saline printed 3,91 ± 361) was 2215 ± 250 Karmen Unit and the “Body Weight” value ([4]; 10 mg/kg oral) was 199.1 ± 0.7 g. For the same compound, the GOT ([4]; 10 mg/kg oral, p < 0.05 vs saline) was 1822 ± 249 Karmen Unit, the “Liver Wt.” value ([4]; 10 mg/kg oral) was 9.5 ± 2.5 g and the BUN ([4]; 10 mg/kg oral) was 34.6 ± 7.2 mg/dL. For the same compound, the GPT ([4]; 10 mg/kg oral) was 1566 ± 354 Karmen Unit, the LDH ([4]; 10 mg/kg oral) was 12209 ± 6214 Wroblewski Unit and the “Body Weight” value ([4]; 25 mg/kg oral) was 200.6 ± 0.6 g. For the same compound, the “Liver Wt.” value ([4]; 25 mg/kg oral) was 8.3 ± 1.5 g, the BUN ([4]; 25 mg/kg oral) was 31.4 ± 8.8 mg/dL and the GPT ([4]; 25 mg/kg oral, p < 0.05) was 1012 ± 261 Karmen Unit. For the same compound, the LDH ([4]; 25 mg/kg oral) was 8054 ± 3666 Wroblewski Unit, the “Body Weight” value ([4]; 50 mg/kg oral) was 198.6 ± 0.8 g and the GOT ([4]; 50 mg/kg oral, p < 0.05 vs saline) was 1339 ± 211 Karmen Unit. The “Liver Wt.” value ([4]; 50 mg/kg oral) was 7.4 ± 2.0 g, the BUN ([4]; 50 mg/kg oral, p < 0.05) was 29.7 ± 3.5 mg/dL and the GPT ([4]; 50 mg/kg oral, p < 0.05) was 805 ± 134 Karmen Unit. For the same compound, the LDH ([4]; 50 mg/kg oral, p < 0.05) was 5003 ± 1642 Wroblewski Unit, the “effect on increase of BUN (in words)” value ([4]; oral) was “inhibited the increase of BUN” and the “effect on liver weight, GOT, GPT and LDH (in words)” value ([4]; oral) was “depressed the increase of liver weight and the increase in GOT, GPT, and LDH”.
